Measurements from ChEMBL document CHEMBL1127387, “Synthesis and structure-activity relationships of a series of penicillin-derived HIV proteinase inhibitors: heterocyclic ring systems containing P1' and P2' substituents” (J Med Chem, 1994).

Legend:
[1] = target: Human immunodeficiency virus type 1 protease (Human immunodeficiency virus 1, UniProt Q72874); experiment: In vitro inhibitory activity against HIV proteinase
MT4 = experiment: Compound was tested for effective concentration against MT-4 cell line; type: functional, cell-based; conditions: Homo sapiens
C8166 = experiment: Compound was tested for effective concentration against C8166 cell line; type: functional, cell-based; conditions: Homo sapiens

Row | Compound | IC50 [1] [nM] | EC50 (MT4) [nM] | EC50 (C8166) [nM]
1 | CCNC(=O)C(NC(=O)Cc1ccccc1)[C@@H]1N[C@@H](C(=O)NCCNC(=O)[C@@H]2N[C@@H]([C@H](NC(=O)Cc3ccccc3)C(=O)NCC)SC2(C)C)C(C)(C)S1 (stereo partly specified) | 5 | 5400 | –
2 | C[C@@H](C(=O)NC(C)(C)C)N(CC(O)CNC(=O)[C@@H]1N[C@@H](C(NC(=O)Cc2ccccc2)C(=O)NCc2ccccc2)SC1(C)C)CC1CCCCC1 (stereo partly specified) | 6400 | – | –
3 | CN(C)c1ccc(CNC(=O)C(NC(=O)Cc2ccccc2)[C@@H]2N[C@@H](C(=O)NC[C@H](O)CN3C[C@H]4CCCC[C@H]4C[C@H]3C(=O)NC(C)(C)C)C(C)(C)S2)cc1 (stereo partly specified) | 26 | 520 | 270
4 | CCNC(=O)C(NC(=O)Cc1ccccc1)[C@@H]1N[C@@H](C(=O)NCC(O)CN(C)[C@@H](CC2CCCCC2)C(=O)NC(C)(C)C)C(C)(C)S1 (stereo partly specified) | 710 | – | –
5 | CC(C)(C)NC(=O)[C@H]1N(CC(O)CNC(=O)[C@@H]2N[C@@H]([C@H](NC(=O)Cc3ccccc3)C(=O)NCc3ccccc3)SC2(C)C)CSC1(C)C (stereo partly specified) | 21 | – | –
6 | CC(C)(C)NC(=O)C1N(C[C@H](O)CNC(=O)[C@@H]2N[C@@H](C(NC(=O)Cc3ccccc3)C(=O)NCc3ccccc3)SC2(C)C)C(C)(C)SC1(C)C (stereo partly specified) | 93 | – | –
7 | CC(C)(C)NC(=O)[C@@H]1C[C@@H](OC(C)(C)C)CN1CC(O)CNC(=O)[C@@H]1N[C@@H](C(NC(=O)Cc2ccccc2)C(=O)NCc2ccccc2)SC1(C)C (stereo partly specified) | 1600 | – | –
8 | CC(C)(C)NC(=O)[C@@H]1CCCCN1C[C@H](O)CNC(=O)[C@@H]1N[C@@H](C(NC(=O)Cc2ccccc2)C(=O)NCc2ccccc2)SC1(C)C (stereo partly specified) | > 2200 | – | –
9 | CC(C)(C)NC(=O)[C@@H]1C[C@@H]2CCCC[C@@H]2CN1C[C@@H](O)CNC(=O)[C@@H]1N[C@@H](C(NC(=O)Cc2ccccc2)C(N)=O)SC1(C)C (stereo partly specified) | 23 | 590 | 120
10 | CC(C)(C)NC(=O)[C@@H]1C[C@@H]2CCCC[C@@H]2CN1CC(O)CNC(=O)[C@@H]1N[C@@H](C(NC(=O)Cc2ccccc2)C(=O)NCCNC(=O)OC(C)(C)C)SC1(C)C (stereo partly specified) | 160 | 52 | 100
11 | CC(C)(C)NC(=O)[C@@H]1CSCN1CC(O)CNC(=O)[C@@H]1N[C@@H](C(NC(=O)Cc2ccccc2)C(=O)NCc2ccccc2)SC1(C)C (stereo partly specified) | 450 | – | –
12 | CC(C)(C)NC(=O)[C@@H]1C[C@@H]2CCCC[C@@H]2CN1C[C@H](O)CNC(=O)[C@@H]1N[C@@H](C(NC(=O)Cc2ccccc2)C(=O)NCc2ccccc2)SC1(C)C (stereo partly specified) | 160 | 13600 | –
13 | CC(C)(C)NC(=O)[C@@H]1C[C@H](OCc2ccccc2)CN1CC(O)CNC(=O)[C@@H]1N[C@@H](C(NC(=O)Cc2ccccc2)C(=O)NCc2ccccc2)SC1(C)C (stereo partly specified) | 650 | – | –
14 | CC(C)(C)NC(=O)C1N(C[C@@H](O)CNC(=O)[C@@H]2N[C@@H](C(NC(=O)Cc3ccccc3)C(=O)NCc3ccccc3)SC2(C)C)C(C)(C)SC1(C)C (stereo partly specified) | 190 | – | –
15 | CC(C)(C)NC(=O)[C@@H]1CCCN1CC(O)CNC(=O)[C@@H]1N[C@@H](C(NC(=O)Cc2ccccc2)C(=O)NCc2ccccc2)SC1(C)C (stereo partly specified) [listing 1 of 2 here] | 1500 | – | –
16 | CC(C)(C)NC(=O)[C@@H]1CCCN1CC(O)CNC(=O)[C@@H]1N[C@@H](C(NC(=O)Cc2ccccc2)C(=O)NCc2ccccc2)SC1(C)C (stereo partly specified) [listing 2 of 2 here] | 3100 | – | –
17 | CCO[C@@H]1C[C@@H](C(=O)NC(C)(C)C)N(C[C@@H](O)CNC(=O)[C@@H]2N[C@@H](C(NC(=O)Cc3ccccc3)C(=O)NCc3ccccc3)SC2(C)C)C1 (stereo partly specified) | > 35000 | – | –
18 | CCCCCCCNC(=O)C(NC(=O)Cc1ccccc1)[C@@H]1N[C@@H](C(=O)NCC(O)CN2C[C@H]3CCCC[C@H]3C[C@H]2C(=O)NC(C)(C)C)C(C)(C)S1 (stereo partly specified) | 86 | > 100000 | –
19 | CC1(C)S[C@H](C(NC(=O)Cc2ccccc2)C(=O)NCc2ccccc2)N[C@H]1C(=O)N[C@H](Cc1ccccc1)[C@H](O)CC(=O)NCc1ccccc1 (stereo partly specified) | 4600 | – | –
20 | CC(C)(C)NC(=O)[C@H]1CN(C(=O)Oc2ccccc2)CCN1C[C@@H](O)CNC(=O)[C@@H]1N[C@@H](C(NC(=O)Cc2ccccc2)C(=O)NCc2ccccc2)SC1(C)C (stereo partly specified) | 82 | – | –
21 | CCNC(=O)C(NC(=O)Cc1ccccc1)[C@@H]1N[C@@H](C(=O)NCC(O)CN2C[C@H]3CCCC[C@H]3C[C@H]2C(=O)NC(C)(C)C)C(C)(C)S1 (stereo partly specified) | 31 | 430 | 740
22 | CC(C)(C)NC(=O)[C@@H]1C[C@@H](O)CN1CC(O)CNC(=O)[C@@H]1N[C@@H](C(NC(=O)Cc2ccccc2)C(=O)NCc2ccccc2)SC1(C)C (stereo partly specified) | 5100 | – | –
23 | CC(C)(C)NC(=O)[C@@H]1CCCCN1C[C@@H](O)CNC(=O)[C@@H]1N[C@@H](C(NC(=O)Cc2ccccc2)C(=O)NCc2ccccc2)SC1(C)C (stereo partly specified) | 6500 | – | –
24 | CC(C)(C)NC(=O)[C@@H]1CN(C(=O)Oc2ccccc2)CCN1C[C@@H](O)CNC(=O)[C@@H]1N[C@@H](C(NC(=O)Cc2ccccc2)C(=O)NCc2ccccc2)SC1(C)C (stereo partly specified) | 58 | – | –
25 | CC(C)(C)NC(=O)[C@@H]1C[C@@H]2CCCC[C@@H]2CN1C[C@@H](O)CNC(=O)[C@@H]1N[C@@H](C(NC(=O)Cc2ccccc2)C(=O)NCc2ccccc2)SC1(C)C (stereo partly specified) | 23 | 350 | 50
26 | CC(C)(C)NC(=O)[C@@H]1C[C@@H]2CCCC[C@@H]2CN1C[C@H](O)CNC(=O)[C@@H]1N[C@@H](C(NC(=O)Cc2ccccc2)C(=O)NCC2CCCCC2)SC1(C)C (stereo partly specified) | 300 | – | –
27 | CC(C)(C)NC(=O)[C@@H]1C[C@@H]2CCCC[C@@H]2CN1C[C@@H](O)[C@H](Cc1ccccc1)NC(=O)[C@H](CC(N)=O)NC(=O)c1ccc2ccccc2n1 | – | 2 | 2
28 | CC(C)(C)NC(=O)[C@@H]1C[C@@H]2CCCC[C@@H]2CN1CC(O)CNC(=O)[C@@H]1N[C@@H](C(NC(=O)Cc2ccccc2)C(=O)NCCNC(=O)CCCC[C@@H]2SC[C@@H]3NC(=O)N[C@@H]32)SC1(C)C (stereo partly specified) | 120 | 18000 | –
29 | CCO[C@@H]1C[C@@H](C(=O)NC(C)(C)C)N(C[C@H](O)CNC(=O)[C@@H]2N[C@@H](C(NC(=O)Cc3ccccc3)C(=O)NCc3ccccc3)SC2(C)C)C1 (stereo partly specified) | > 35000 | – | –
30 | COC(=O)C(NC(=O)Cc1ccccc1)[C@@H]1N[C@@H](C(=O)NC[C@H](O)CN2C[C@H]3CCCC[C@H]3C[C@H]2C(=O)NC(C)(C)C)C(C)(C)S1 (stereo partly specified) | 54 | 3900 | –
